Measurements: ChEMBL document CHEMBL1155507, “Synthesis, SAR and evaluation of [1,4']-bipiperidinyl-4-yl-imidazolidin-2-one derivatives as novel CCR5 antagonists” (Bioorg Med Chem Lett, 2010)
pIC50: −log10 of the molar value.

Key:
[1] = Intrinsic clearance in cynomolgus monkey liver microsomes; format: ADME, Macaca fascicularis, Microsome
[2] = Cmax in cynomolgus monkey at 1 mg/kg, po; format: ADME, organism-based, Macaca fascicularis; set-up: dose 1 mg/kg, route oral; conditions: in vivo
Caco-2 = experiment: Efflux ratio of permeability from basolateral to apical over apical to basolateral side in human Caco-2 cells after 21 days; format: ADME, cell-based; conditions: caco-2, 504 h
[3] = Intrinsic clearance in human liver microsomes per mg of protein; format: ADME, Microsome
[4] = Clearance in cynomolgus monkey at 1 mg/kg, iv; format: ADME, organism-based, Macaca fascicularis; set-up: dose 1 mg/kg, route intravenous; conditions: in vivo
[5] = molecular target: C-C chemokine receptor type 5 (Homo sapiens, UniProt P51681); experiment: Binding affinity at CCR5 receptor by radiolabeled RANTES binding assay
[6] = AUC in cynomolgus monkey at 1 mg/kg, po; format: ADME, organism-based, Macaca fascicularis; set-up: dose 1 mg/kg, route oral; conditions: plasma
[7] = system: Human immunodeficiency virus 1; experiment: Antiviral activity against HIV1 NL4-3 infected in human JC53-BL cells assessed as luciferase activity after 3 days post infection; format: functional, organism-based; conditions: Human immunodeficiency virus 1, NL4-3, JC53BL, 72 h
[8] = Oral bioavailability in cynomolgus monkey at 1 mg/kg; format: ADME, organism-based, Macaca fascicularis; conditions: in vivo
[9] = Permeability from apical to basolateral side of human Caco-2 cells after 21 days; format: ADME, cell-based; conditions: read-out: permeability
[10] = Half life in cynomolgus monkey at 1 mg/kg, iv; format: ADME, organism-based, Macaca fascicularis; set-up: dose 1 mg/kg, route intravenous; conditions: in vivo
[11] = (§1) Oral bioavailability in rat at 1 mg/kg; format: ADME, organism-based; conditions: in vivo
[12] = Clearance in rat at 1 mg/kg, iv; format: ADME, organism-based; set-up: dose 1 mg/kg, route intravenous; conditions: in vivo
hERG (KCNH2) = hERG (KCNH2) (Homo sapiens, UniProt Q12809); experiment: Inhibition of human ERG by patch clamp technique
Liver microsomes = experiment: Intrinsic clearance in rat liver microsomes; format: ADME, Microsome
[13] = (§2) AUC in rat at 1 mg/kg, po; format: ADME, organism-based, Plasma; set-up: dose 1 mg/kg, route oral; conditions: plasma
[14] = Half life in rat at 1 mg/kg, iv; format: ADME, organism-based; set-up: dose 1 mg/kg, route intravenous; conditions: in vivo
[15] = Cmax in rat at 1 mg/kg, po; format: ADME, organism-based; set-up: dose 1 mg/kg, route oral; conditions: in vivo
Rattus norvegicus [16] = experiment: as §1; format: ADME, organism-based; conditions: in vivo
Rattus norvegicus [17] = experiment: as §2; format: ADME, organism-based, Plasma; set-up: dose 1 mg/kg, route oral; conditions: in vivo

C-C chemokine receptor type 5, sequence (P51681 whole entry): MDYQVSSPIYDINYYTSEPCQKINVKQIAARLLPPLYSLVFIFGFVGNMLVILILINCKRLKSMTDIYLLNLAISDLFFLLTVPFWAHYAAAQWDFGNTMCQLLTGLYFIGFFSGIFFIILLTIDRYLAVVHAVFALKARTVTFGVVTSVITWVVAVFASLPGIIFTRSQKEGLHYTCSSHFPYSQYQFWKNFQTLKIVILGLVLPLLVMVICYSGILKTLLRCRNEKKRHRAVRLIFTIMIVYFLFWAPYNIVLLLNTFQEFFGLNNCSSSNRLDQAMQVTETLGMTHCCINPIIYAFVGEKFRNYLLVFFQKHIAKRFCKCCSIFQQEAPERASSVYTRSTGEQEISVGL
hERG (KCNH2), sequence (Q12809 whole entry): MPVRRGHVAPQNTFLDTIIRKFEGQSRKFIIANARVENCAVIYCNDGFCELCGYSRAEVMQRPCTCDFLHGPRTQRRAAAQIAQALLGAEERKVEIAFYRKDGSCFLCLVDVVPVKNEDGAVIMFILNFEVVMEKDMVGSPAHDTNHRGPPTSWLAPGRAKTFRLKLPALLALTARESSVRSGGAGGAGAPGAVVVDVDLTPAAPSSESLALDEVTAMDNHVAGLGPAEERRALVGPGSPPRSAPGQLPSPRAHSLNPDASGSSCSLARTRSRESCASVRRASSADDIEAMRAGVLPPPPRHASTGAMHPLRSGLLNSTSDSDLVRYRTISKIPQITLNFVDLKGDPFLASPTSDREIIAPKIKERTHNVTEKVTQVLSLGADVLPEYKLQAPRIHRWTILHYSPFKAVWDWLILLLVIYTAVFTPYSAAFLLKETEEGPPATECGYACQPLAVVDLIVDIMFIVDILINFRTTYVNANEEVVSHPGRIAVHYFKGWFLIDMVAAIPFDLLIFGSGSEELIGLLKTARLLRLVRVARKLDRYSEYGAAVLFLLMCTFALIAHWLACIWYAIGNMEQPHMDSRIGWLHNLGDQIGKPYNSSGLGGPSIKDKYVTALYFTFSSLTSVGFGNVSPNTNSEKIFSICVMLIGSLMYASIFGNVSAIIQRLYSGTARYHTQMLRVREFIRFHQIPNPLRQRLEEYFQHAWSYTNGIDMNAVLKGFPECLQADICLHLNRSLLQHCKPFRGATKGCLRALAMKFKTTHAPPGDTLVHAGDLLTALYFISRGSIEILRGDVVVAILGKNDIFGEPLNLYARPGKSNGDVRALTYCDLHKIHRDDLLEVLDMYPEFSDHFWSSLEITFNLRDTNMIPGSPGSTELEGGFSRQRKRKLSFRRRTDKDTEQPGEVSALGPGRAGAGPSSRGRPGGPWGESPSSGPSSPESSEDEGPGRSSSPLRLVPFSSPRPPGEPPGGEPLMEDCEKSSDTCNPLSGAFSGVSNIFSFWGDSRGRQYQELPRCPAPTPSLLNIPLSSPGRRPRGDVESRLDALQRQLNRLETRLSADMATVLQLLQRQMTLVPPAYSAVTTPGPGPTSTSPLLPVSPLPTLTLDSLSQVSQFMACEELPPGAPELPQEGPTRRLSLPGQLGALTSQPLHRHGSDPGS

Row | Compound | Ratio (Caco-2) | microsomal CLint [3] | pIC50 [5] | pIC50 [7] | Papp A→B [9] | other results
1 | Cc1ncnc(C)c1C(=O)N1CCC(C)(N2CCC(N3C(=O)N(CC4CCOCC4)C[C@H]3c3ccccc3)CC2)CC1 | 29 | 16 µL/min/mg | 7.70 | 7.49 | 0.5 ×10⁻⁶ cm/s | microsomal CLint [1]: 65 µL/min/mg; Cmax [2]: 16 ng/mL; clearance [4]: 39 mL/min/kg; AUC [6]: 55 ng·h/mL; bioavailability [8]: 14%; half-life [10]: 1.9 h
2 | Cc1ncnc(C)c1C(=O)N1CCC(C)(N2CCC(N3C(=O)N(CC4CCOCC4)CC3c3ccccc3)CC2)CC1 (racemic) | 33 | 31 µL/min/mg | 7.57 | 7.33 | 0.4 ×10⁻⁶ cm/s | bioavailability [11]: 27%; clearance [12]: 44 mL/min/kg; IC20 (hERG (KCNH2)): 22000 nM; CL (Liver microsomes): 14 µL/min; AUC [13]: 189 ng·h/mL; half-life [14]: 1.5 h; Cmax [15]: 56 ng/mL
3 | Cc1cc(C#N)nc(C)c1C(=O)N1CCC(C)(N2CCC(N3C(=O)N(CC4CCOCC4)C[C@@H]3c3ccccn3)CC2)CC1 | 77 | 18 µL/min/mg | 7.92 | 7.66 | 0.1 ×10⁻⁶ cm/s | bioavailability [11]: 19%; clearance [12]: 29 mL/min/kg; CL (Liver microsomes): 87 µL/min; AUC [13]: 187 ng·h/mL; half-life [14]: 1 h; Cmax [15]: 38 ng/mL
4 | Cc1ncnc(C)c1C(=O)N1CCC(C)(N2CCC(N3C(=O)N(C4CCOCC4)C[C@H]3c3ccccc3)CC2)CC1 | 28 | 8 µL/min/mg |  | < 6.20 | 0.6 ×10⁻⁶ cm/s | 
5 | CNC(=O)N1CCC(CN2C[C@@H](c3ccccc3)N(C3CCN(C4(C)CCN(C(=O)c5c(C)cc(C#N)nc5C)CC4)CC3)C2=O)CC1 | 10 | 53 µL/min/mg | 7.59 | 7.60 | 0.7 ×10⁻⁶ cm/s | 
6 | CCO[C@H]1CC[C@H](CN2C[C@H](c3ccccn3)N(C3CCN(C4(C)CCN(C(=O)c5c(C)cc(C#N)nc5C)CC4)CC3)C2=O)CC1 | 30 | 40 µL/min/mg | 7.60 | 8.05 | 0.5 ×10⁻⁶ cm/s | 
7 | Cc1ncnc(C)c1C(=O)N1CCC(C)(N2CCC(N3C(=O)N(CC4CCN(S(C)(=O)=O)CC4)C[C@H]3c3ccccc3)CC2)CC1 | 38 | 224 µL/min/mg | 7.47 | 8.15 | 0.2 ×10⁻⁶ cm/s | 
8 | CCCCC1CN(CC2CCOCC2)C(=O)N1C1CCN(C2(C)CCN(C(=O)c3c(C)ncnc3C)CC2)CC1 (racemic) | 40 | 36 µL/min/mg | 7.37 | 6.47 | 0.4 ×10⁻⁶ cm/s | 
9 | Cc1ncnc(C)c1C(=O)N1CCC(C)(N2CCC(N3C(=O)N(CC4CCOCC4)C[C@@H]3c3ccccc3)CC2)CC1 |  |  | < 6.30 | < 6.19 |  | 
10 | CO[C@H]1CC[C@H](CN2C[C@@H](c3ccccc3)N(C3CCN(C4(C)CCN(C(=O)c5c(C)ncnc5C)CC4)CC3)C2=O)CC1 | 13 | 69 µL/min/mg | 7.21 | 8.10 | 1.4 ×10⁻⁶ cm/s | 
11 | Cc1cc(C#N)nc(C)c1C(=O)N1CCC(C)(N2CCC(N3C(=O)N(C[C@H]4CC[C@H](O)CC4)C[C@H]3c3ccccc3)CC2)CC1 | 47 | 34 µL/min/mg | 7.48 | 8.52 | 0.4 ×10⁻⁶ cm/s | 
12 | CCO[C@H]1CC[C@H](CN2C[C@@H](c3ccccc3)N(C3CCN(C4(C)CCN(C(=O)c5c(C)ncnc5C)CC4)CC3)C2=O)CC1 | 4 | 47 µL/min/mg | 8.22 | 8.52 | 3 ×10⁻⁶ cm/s | bioavailability [11]: 10%; clearance [12]: 65 mL/min/kg; CL (Liver microsomes): 89 µL/min; AUC [13]: 49 ng·h/mL; half-life [14]: 0.8 h; Cmax [15]: 21 ng/mL
13 | CNC(=O)N1CCC(CN2C[C@@H](c3ccccc3)N(C3CCN(C4(C)CCN(C(=O)c5c(C)ncnc5C)CC4)CC3)C2=O)CC1 | 13 | 13 µL/min/mg | 7.49 | 7.00 | 0.1 ×10⁻⁶ cm/s | 
14 | Cc1cc(C#N)nc(C)c1C(=O)N1CCC(C)(N2CCC(N3C(=O)N(C4CCOCC4)C[C@H]3c3ccccc3)CC2)CC1 | 12 | 15 µL/min/mg | 7.68 | 8.15 | 1 ×10⁻⁶ cm/s | F (Rattus norvegicus [16]): 23%; CL (Liver microsomes): 55 µL/min; AUC (Rattus norvegicus [17]): 85 ng·h/mL; half-life [14]: 5.7 h; Cmax [15]: 43 ng/mL
15 | CCCCC1CN(C2CCOCC2)C(=O)N1C1CCN(C2(C)CCN(C(=O)c3c(C)cc(C#N)nc3C)CC2)CC1 (racemic) | 14 | 20 µL/min/mg | 7.19 | 7.39 | 1 ×10⁻⁶ cm/s | 
16 | Cc1ncnc(C)c1C(=O)N1CCC(C)(N2CCC(N3C(=O)N(C[C@H]4CC[C@H](O)CC4)C[C@H]3c3ccccc3)CC2)CC1 | 61 | 12 µL/min/mg | 7.70 | 8.10 | 0.2 ×10⁻⁶ cm/s | 
17 | Cc1cc(C#N)nc(C)c1C(=O)N1CCC(C)(N2CCC(N3C(=O)N(C)C[C@H]3c3ccccc3)CC2)CC1 | 25 | 44 µL/min/mg | 7.62 | 7.66 | 0.6 ×10⁻⁶ cm/s | 
18 | Cc1cc(C#N)nc(C)c1C(=O)N1CCC(C)(N2CCC(N3C(=O)N(CC4CCOCC4)C[C@H]3c3ccccc3)CC2)CC1 | 20 | 57 µL/min/mg | 7.92 | 8.70 | 1 ×10⁻⁶ cm/s | 
19 | COC(=O)N1CCC(CN2C[C@@H](c3ccccc3)N(C3CCN(C4(C)CCN(C(=O)c5c(C)ncnc5C)CC4)CC3)C2=O)CC1 | 56 | 155 µL/min/mg |  | 7.59 | 0.3 ×10⁻⁶ cm/s | 
20 | Cc1cc(C#N)nc(C)c1C(=O)N1CCC(C)(N2CCC(N3C(=O)N(C4CCOCC4)CC3c3ccccc3)CC2)CC1 (racemic) |  |  |  |  |  | microsomal CLint [1]: 33 µL/min/mg; IC20 (hERG (KCNH2)): 3500 nM; Cmax [2]: 133 ng/mL; clearance [4]: 17 mL/min/kg; AUC [6]: 418 ng·h/mL; bioavailability [8]: 42%; half-life [10]: 1.9 h
21 | CCCCC1CN(C2CCOCC2)C(=O)N1C1CCN(C2(C)CCN(C(=O)c3c(C)ncnc3C)CC2)CC1 (racemic) | 52 | 9 µL/min/mg | 7.08 | < 6.20 | 0.4 ×10⁻⁶ cm/s | 
22 | Cc1ncnc(C)c1C(=O)N1CCC(C)(N2CCC(N3C(=O)N(CCC4CCOCC4)C[C@H]3c3ccccc3)CC2)CC1 | 24 | 96 µL/min/mg | 8.10 | 7.60 | 0.8 ×10⁻⁶ cm/s | 
